Patent US9440966B2, “Compounds for treatment of metabolic syndrome” (SJT MOLECULAR RESEARCH, S.L., priority 2011, dated 2016)
“Also recorded” adds a separate entry of the source.

Assays:
[1] = tested on: Drosophila melanogaster (Oregon-R strain); assay: Toxicology study: larva-to-adult viability and development time; settings: in vivo
Description: The purpose of this study was to test and compare the potential toxic effects of compounds 5a, 6a and 7a on the larva-to-adult viability and development time in a Drosophila melanogaster (Oregon-R) flies. These studies have a relevant predictive role with the aim to anticipate possible adverse toxicological effects that may happen during preclinical studies with animal, preferably mammals. In addition, the data provided are highly quantitative.
Drosophila melanogaster (Oregon-R) flies were obtained by the University of the Balearic Islands (Spain). […] The larvae were seeded on standard food supplemented with the appropriate dose of compounds tested. Each compound was tested at 1, 10, 100, 1000 and 2000 μg/ml dissolved in standard food.
Fly adults were transferred from the serial transfer system to bottles with fresh food for 24 h. Adults 5 days old were placed on egg collecting devices (layers) containing a mixture of agar, water, acetic acid, and ethyl alcohol, with a drop of active yeast on it. Every 2 h., the layer glasses were changed, in this way, the eggs of a glass have similar age, with a maximum difference of 2 h. among them. The glasses of the layers were kept at 25° C. for at least 22 h. in Petri dishes until larvae hatched. Fifty larvae were picked with a lancet under a stereoscopic microscope and were seeded into 10×2 cm vials with 5 ml food. Vials were supplemented with 4a, 5a and 7a at 1, 10 and 100 μg/ml. As positive control we used cupric acetate (toxic) at 350 μg/ml.
The number of adult flies which emerged from each vial was counted daily until the exhaustion of the culture. The parameters studied were the larvae-to-adult viability (V) and development time.
Viability is expressed as V=NA/NL, where NL is the input number of larvae ([…] in our case) and NA the output number of adults emerging from these NL larvae. Development time was measured in days by the formula DT=ΣNidi/ΣNi where Ni is the number of flies emerging on the day di after the larvae were placed in the medium.
The data are expressed as the mean±SEM values from 3 independent experiments involving triplicate vials at the number of flies indicated.

normoglycemic rats [2] = assay: Oral glucose tolerance test in normoglycemic rats (Examples 27, 28); assay type: in vivo, Male Wistar rats
Procedure: (§1) Male Wistar rats were utilized provided by Mato Grosso do Sul's Federal University's Biotherium. Until the experiments were carried out, the animals have had free access to feed and water. The room temperature was kept at 22±2° C. and the light/dark cycle was of 12 hours.
The glucose tolerance test is a reference method for the diagnosis of diabetes or glucose intolerance (5).
Distinct rat groups were orally treated, once a day, with 3-(carbohydrazyl-N′-phenylsubstituted)-1-benzosubstituted-β-carbolinic-3-carbohydrazide (compound 7a or ANIS-BZ) at doses: 0.5, 1 or 5 mg/kg or vehicle (control) for 3 days. Similarly, another rat group received metformin (reference drug used for lowering glucose serum levels) in a 300 mg/kg dose, orally, once a day for 3 days. The oral glucose tolerance test was carried out by administering of a glucose solution (2 g/kg body mass). Glycemia was determined at zero time (before oral administering) and at 60 minutes after the glucose overload.
Distinct groups of rats were treated orally, once a day, with N(-ethylamine)-1-benzosubstituted-β-carboline-3-carboxamide (compound 4a or ANIS-NH2) at doses: 0.5, 1 or 5 mg/kg, or vehicle for 3 days. Similarly, another group of rats received metformin in a 300 mg/kg dose orally for 3 days once a day. The oral glucose tolerance test was done under the administration of a glucose solution (2 g/kg body mass). Glycemia will be determined at the zero (before oral administration) time and 60 minutes after glucose overload.

SHR hypertensive rats [3] = assay: Blood glucose levels test in SHR hypertensive rats; assay type: in vivo, Male SHR
Procedure: (§2) Male SHR were provided by Charles River Laboratories (USA). Until the experiments were carried out, the animals have had free access to feed and water. The food was removed 12 h before glucose determination. The room temperature was kept at 22±2° C. and the light/dark cycle was of 12 hours. All procedures were submitted to the Animal Experimentation Ethics Committee.
Distinct rat groups were orally treated, once a day, with 5 mg/kg of compound 4a during the first 4 days, 10 mg/kg during the next 4 days and 15 mg/kg until the end of the treatment period or vehicle (control) for the same days. Similarly, another rat group received metformin in a 300 mg/kg dose, orally, from day 1 to the end of the treatment. Blood glucose levels were measured in triplicate 12 hours after drug administration with the aid of a GLUCOCARD TM G meter, GT-1810. Results were compared with the effect of metformin […]. Blood samples were obtained by femoral vein punction. This method was chosen because of its noninvasive character, enabling daily measurements with the same rats throughout the entire treatment.

SHR hypertensive rats [4] = assay: Plasma cholesterol levels test in SHR hypertensive rats; assay type: in vivo, Male SHR
Procedure: (§3) Distinct rat groups were orally treated, once a day, with 5 mg/kg of compounds 4a or 5a or 6a during the first 4 days, 10 mg/kg during the next 4 days and 15 mg/kg until the end of the treatment period or vehicle (control) for the same days. Similarly, another rat group received metformin (MET) (reference drug used for lowering glucose serum levels) in a 300 mg/kg dose, orally, from day 1 to the end of the treatment. Plasma cholesterol levels were measured in triplicate 12 hours after drug administration by the cholesterol oxidase/peroxidase method (BioSystems S.A, Barcelona, Spain). Blood samples were obtained by femoral vein punction. This method was chosen because of its noninvasive character, enabling daily measurements with the same rats throughout the entire treatment.
as §2, with “The” for “The food was removed 12 h before glucose determination. The”
as §3, with “metformin” for “metformin (MET)”, “Blood pressure was” for “Plasma cholesterol levels were”, “4” for “12”, “administration in warmed warmed, restrained, conscious rats” for “administration”, “tail-cuff” for “cholesterol oxidase/peroxidase”, “with a computerized oscillometric system recorder (Nyprem, Cibertec).” for “(BioSystems S.A, Barcelona, Spain). Blood samples were obtained by femoral vein punction.”

female Swiss mice = assay: Acute oral toxicology study in a mice model; assay type: in vivo; settings: oral 2000 mg/kg single dose, observation for 14 days
Procedure: The experiments were conducted using female Swiss mice (20-30 g), housed under a 12-h light-dark cycle, with controlled humidity (60-80%), and temperature (22±1° C.). Food and water were freely available to the mice.
Female mice (n=6) were orally (2000 mg/kg) administered with a single dose of 4a, 5a, and 7a for the observation of acute signs of toxicity until 14 days. […] The observations comprised the behavior and manifestations of the toxic symptoms, and were carried out according to the Guidelines of the Organization for Economic Cooperation and Development (OECD, 2008).
All compounds were dissolved in sterile saline and were administered by oral gavage to mice based in the weight, for example 20 g received 20 μL.
The data are expressed as mean±S.E.M. of experiments. Statistical significance was determined through one-way analysis of variances (ANOVA), followed by either Newman-Keuls test. A p<0.05 was considered statistically significant. Graphs were drawn and statistical analysis was carried out using GraphPad Prism version 5.00 for Windows (GraphPad Software, San Diego, Calif., USA).

SHR hypertensive rats [5] = assay: Plasma triglyceride levels test in SHR hypertensive rats; assay type: in vivo, Male SHR; settings: 25 days of treatment (5-15 mg/Kg) oral
Procedure: as §2, with “The” for “The food was removed 12 h before glucose determination. The”
as §3, with “of compound” for “of compounds”, “4a” for “4a or 5a or 6a”, “metformin” for “metformin (MET)”, “Plasma triglyceride” for “Plasma cholesterol”, “the glycerol phosphate” for “the cholesterol”

SHR hypertensive rats [6] = assay: Systolic blood pressure test in SHR hypertensive rats; assay type: in vivo, Male Spontaneously Hypertensive Rats (SHR); settings: metformin 300 mg/kg oral
Procedure: as §2, with “Spontaneously Hypertensive Rats (SHR)” for “SHR”, “water.” for “water. The food was removed 12 h before glucose determination.”
as §3, with “Blood samples were obtained by femoral vein punction. This method was chosen because of its noninvasive character, enabling daily measurements with the same rats throughout the entire treatment.” left out
Distinct rat groups were orally treated, once a day, with 5 mg/kg of compounds 4a or 5a or 6a during the first 4 days, 10 mg/kg during the next 4 days and 15 mg/kg until the end of the treatment period or vehicle (control) for the same days. […] Blood pressure was measured in triplicate 4 hours after drug administration in warmed warmed, restrained, conscious rats by the tail-cuff method with a computerized oscillometric system recorder (Nyprem, Cibertec). […]

normoglycemic rats [7] = assay: Oral glucose tolerance test in normoglycemic rats (Examples 36, 37); assay type: in vivo, Male Wistar rats; settings: metformin 300 mg/kg orally daily
Procedure: as §1, with “rats (200-300 g)” for “rats”, “C. with controlled humidity (60-80%)” for “C.”
The glucose tolerance test was evaluated as described by Al-Awaki et al (6).
Rats were randomly divided into […] groups of four animals that were control group that received only a solution of saline, compound 23b group (10 mg/kg), compound 21a group (10 mg/kg) and metformin 300 mg/kg group. Respective treatments were made orally and daily for five days.
(§4) On day 1, 3, and 5, different groups of rats were fasted overnight (at least 12 h) prior to the test, but with given water ad libitum. The oral glucose tolerance test was carried out by administering of a glucose solution (2 g/kg body weight) according to Al-Awadi et al (6). Glycemia was determined in blood samples collected from the tail vein at −30 minutes (just before the administration of the oral extract) time 0 (prior to the glucose overload) and at 60 minutes after the glucose overload. Serum glucose concentrations were measured by the glucose oxidase method (7) using commercial kit (Accuchek-performa (Roche)) according to the manufacture's instructions.
as §1, with “rats (200-300 g)” for “rats”, “C. with controlled humidity (60-80%)” for “C.”, “hours. All procedures were submitted to the Animal Experimentation Ethics Committee.” for “hours.”
The compounds 21b, 23a and 23d were diluted firstly in 20 μl of ethanol and after in 980 μl de saline. Compounds 21e, 23e and 26b were dissolved in sterile saline and were administered by oral gavage to rats based in the weight, for example 200 g received 200 μL.
54 rats were randomly divided into […] groups of five-eight animals that were control group (n=8) that received only a solution of vehicle, compound 21b group (n=5) (10 mg/kg), compound 21e group (n=5) (10 mg/kg), compound 23e group (n=5) (10 mg/kg), compound 23a group (n=5) (10 mg/kg), compound 23d group (n=5) (10 mg/kg), compound 26b group (n=5) (10 mg/kg) and metformin (n=6) 300 mg/kg group. Respective treatments were made orally and daily for five days.
as §4, with “manufactures's” for “manufacture's”

SMILES | larvae-to-adult viability and development time [1] | glycemic levels of animals that received an oral glucose overload (normoglycemic rats [2]; after 3 days, 0.5 mg/kg oral once a day, vs control group) | glycemic levels of animals that received an oral glucose overload (normoglycemic rats [2]; after 3 days, 1 mg/kg oral once a day, vs control group) | glycemic levels of animals that received an oral glucose overload (normoglycemic rats [2]; after 3 days, 5 mg/kg oral once a day, vs control group, 5 mg/kg) | glycemic levels of animals that received an oral glucose overload (normoglycemic rats [2]; first day, 5 mg/kg oral, vs control group, 60 min after glucose 2 g/kg) | blood glucose decrease compared to the vehicle-control group (SHR hypertensive rats [3]; doses from 5 to 15 mg/kg oral, treatment periods of 4-15 days) | plasma cholesterol levels (SHR hypertensive rats [4]; 25 days of treatment (15 mg/Kg) oral, effect more pronounced for 5a and 7a) | mortality or behavioral disorders (acute signs of toxicity) (female Swiss mice) | plasma triglyceride levels (SHR hypertensive rats [5]) | inhibitory effect on systolic blood pressure (SHR hypertensive rats [6]) | glycemic levels of animals that received an oral glucose overload (normoglycemic rats [2]; after 3 days, metformin 300 mg/kg oral once a day) | glycemic levels of animals that received an oral glucose overload (normoglycemic rats [2]; first day, metformin 300 mg/kg oral) | effect on blood glucose levels (SHR hypertensive rats [3]; Metformin 300 mg/kg for 23 days) | plasma cholesterol levels (SHR hypertensive rats [4]; 25 days, Metformin 300 mg/Kg oral) | glucose levels in oral glucose tolerance test (normoglycemic rats [7]; fifth day) | glucose levels in oral glucose tolerance test (normoglycemic rats [7]; first day) | glucose levels in oral glucose tolerance test (normoglycemic rats [7]; third day)
COc1ccc(-c2nc(C(=O)NCCN)cc3c2[nH]c2ccccc23)cc1 [Compound 4a, N(-ethylamine)-1-benzosubstituted-β-carboline-3-carboxamide] | not affected | only the 1 and 5 mg/kg doses reduced statistically significant the glycemic levels | reduced statistically significant the glycemic levels | reduces the glycemic levels; also recorded: reduced statistically significant the glycemic levels | reduces the glycemic levels | 5-7% | inhibition of plasma cholesterol levels | did not produce mortality or any behavioral disorders | statistically significant (p<0.05), inhibition of plasma triglyceride levels |  |  |  |  |  |  |  | 
CN(C)C(=N)N=C(N)N [metformin, reference compound] |  |  |  |  |  |  |  |  |  | This effect at 5-15 mg/kg is greater than that of metformin | induces reduction of glycemic levels | induces reduction of glycemic levels | slightly greater effect on blood glucose levels | inhibition of plasma cholesterol levels | reduced the glucose levels | significant reduction in glucose levels | induces reduction of glycemic levels; also recorded: significant reduction in glucose levels
